Data published in patent publication US11980616B2, “Treating liver disease by selectively eliminating senescent cells” (Buck Institute for Research on Aging, priority 2014, dated 2024).

How the values were obtained:
[1] = test system: IL-6 positive senescent IMR90 cells; experiment: IL-6 immunofluorescence in irradiated senescent IMR90 cells; type: cell-based, human
Procedure: Primary human fibroblast (IMR90) cells were induced to senesce by applying 10 Gy of irradiation. Seven days after irradiation (Day 0), cells were treated with 10 μM Nutlin-3a or vehicle (DMSO) for nine days (Day 9). The drug or vehicle was refreshed every three days. Drug/vehicle was removed at Day 9 and the cells were cultured for an additional three days (Day 12). Cells were then fixed with 4% paraformaldehyde and stained by immunofluorescence with a specific anti-IL-6 antibody (R&D, AF-206-NA). Cells were counterstained with DAPI for nuclear visualization. The percent IL-6 positive cells is illustrated in FIG. 12A. IL-6 positive cells were determined in an unbiased manner using CellProfiler software. Three different cultures were assessed. Non-senescent cells had no detectable cells IL-6 production while senescent cells were about 8% positive at day 9 after vehicle (DMSO) treatment (16 days after irradiation). […] At day 12, 3 days after Nutlin-3a was removed and 19 days after irradiation, IL-6 positive cells in the vehicle control were about 9% and Nutlin3a treated cells were less than 1% positive for IL-6.

[2] = test system: non-senescent mouse embryonic fibroblasts (Non Sen MEFs); experiment: Cell count toxicity assay, non-senescent MEF; type: cell-based; details: 0, 2.5, 10 μM, 9 days
Procedure: Foreskin fibroblast cell lines HCA2 and BJ, lung fibroblast cell line IMR90, and mouse embryonic fibroblasts were seeded in six-well plates and induced to senesce with 10 Gy of ionizing radiation (IR) or a 24 hr treatment with doxorubicin (Doxo). Senescent phenotype was allowed to develop for at least 7 days, at which point a cell count was made to determine the baseline number of cells. Nutlin-3a treatment was then initiated for a period of at least 9 days. Media alone or media with drug as appropriate was refreshed at least every three days. At the end of the assay time period, cells are counted. Each condition was seeded in three plate wells and counted independently. Initial cell count serves as a control to determine the induction of senescence, as compared to the last day count without nutlin treatment. Initial non-senescent cell count serves as a proxy to determine Nutlin-3a toxicity.
Non-senescent foreskin fibroblasts (HCA2), lung fibroblasts (IMR90), and mouse embryonic fibroblasts (MEF) were treated with varying concentrations (0, 2.5 μM, and 10 μM) of Nutlin-3a for a period of 9 days to assess Nutlin-3a toxicity. Cell counts were taken at the start (NS start) and end of Nutlin-3a treatment. The difference between counts of cells not treated with Nutlin-3a on day 9 (NS 0) and cell counts determined at day zero (NS start) reflects the cell growth over the indicated time period. […]

[3] = test system: non-senescent pre-adipocytes (Non Sen Pread); experiment: Cell count toxicity assay, non-senescent pre-adipocytes; type: cell-based; details: 0, 2.5, 10 μM, 11 days
Procedure: Non-senescent aortic endothelial (Endo Aort) cells and pre-adipocytes (Pread) were also treated with varying concentrations (0, 2.5 μM, and 10 μM) of Nutlin-3a for a period of 11 days to assess Nutlin-3a toxicity, as described above. Cell counts were taken at the start at Day 0 (NS start) and at the end of Nutlin-3a treatment (NS 0). The difference between counts of cells not treated with Nutlin-3a on day 11 (NS 0) and cell counts from NS start reflects the cell growth over the indicated time period. […] Decrease in apparent survival between NS 0 and NS 2.5 and between NS 0 and NS 10 reflects a decrease in cell growth.

[4] = test system: IL-6 secretion by senescent IMR90 cells; experiment: IL-6 secretion ELISA in irradiated senescent IMR90 cells; type: cell-based, human; details: 10 μM for nine days, then six days without drug; ELISA normalized to cell number
Procedure: In another experiment, IMR90 cells were induced to senesce by irradiation (10 Gy). Seven days after irradiation, cells were treated with 10 μM Nutlin-3a or vehicle (DMSO) for nine days (Day 9). The drug or vehicle was refreshed every three days. Drug/vehicle was removed at Day 9 and the cells were cultured for an additional six days. Conditioned media from the treated cells was collected, and IL-6 measurement by ELISA was performed (Perkin Elmer, AL223F). IL-6 levels in culture media were determined by ELISA using a kit according to manufacturer's instructions (AL223F, Perkin Elmer). Cells were fixed with 4% paraformaldehyde and stained by immunofluorescence with a specific anti-IL-6 antibody (R&D, AF-206-NA). The IL-6 level determined by ELISA was normalized to the number of cells in each well. The data are presented in FIG. 22C as a relative level of IL-6 in the treated cells compared to the level in non-senescent cells (NS). The data are presented as an average of three different cell samples.

COc1ccc(C2=N[C@@H](c3ccc(Cl)cc3)[C@@H](c3ccc(Cl)cc3)N2C(=O)N2CCNC(=O)C2)c(OC(C)C)c1 [Nutlin-3a]
Percent IL-6 positive cells ([1]; 10 μM, Day 9, vehicle about 8%): below 5% | Percent IL-6 positive cells ([1]; Day 12, 3 days after drug removal, vehicle about 9%): less than 1% | Proliferation (percent growth) [2]: reduces proliferation | Toxicity (cell number vs starting level) [2]: non-toxic | Proliferation (percent growth) [3]: reduces proliferation | Toxicity (cell number vs starting level) [3]: non-toxic | IL-6 level, fold lower than DMSO treated cells [4]: 5-9 fold
